Results: US20080207521A1, “PEPTIDE LIGAND TO IMPAIR CANCER CELL MIGRATION” (priority 2005, published 2008)

Assays:
[1] = tested on: Wnt-5a antisense HB2 cells; experiment: Migration of Wnt-5a antisense HB2 cells in modified Boyden chamber; format: cell-based, human; conditions: 95% pure peptide 100 μM; 18 h
Procedure: (§1) Cell migration analyses were performed in a modified Boyden chamber with a polycarbonate membrane (10 μm thick with a porous diameter of 8.0 μm) separating the two chambers (Transwell®; Costar, Cambridge, Mass.). As indicated in some experiments the membranes were coated with collagen by adding collagen-I (10 μg/ml) diluted in 0.25% acetic acid to the upper chamber for 1 h at 37° C., after which it was washed three times with PBS. Each experiment was initiated by detaching the cells by Versene treatment for 10-20 min at 37° C., washed, and re-suspended as a single cell suspension in serum-free DMEM medium supplemented with 0.5% BSA. Together with the indicated agonist a 0.2 ml cell suspension (containing 25,000 MDA-MB-468 or 50,000 HB2 cells) was then added to the upper chamber of the transwell. The lower chamber was filled with 0.6 ml serum-free but BSA-containing DMEM medium supplemented with 1 ng/ml of the chemoattractant IGF-I. As a control, IGF-I was excluded in some wells in each separate experiment. The cells were allowed to migrate in the Boyden chamber for 18 h at 37° C. in a humidified atmosphere of 95% air and 5% CO2. The experiments were terminated by removing the non-migratory cells with a cotton-tipped applicator from the upper surface of the membranes. The remaining cells on the lower surface that had migrated through the membrane were stained for 20 min with 0.5% crystal violet diluted in 20% methanol/80% water. After washing the membranes the number of stained cells per membrane and well was counted in an inverted microscope. The value from each separate experiment represents the median value of three individual wells.
Effects of the selected and pure peptides on the ability of Wnt-5a antisense HB2 cells to adhere and migrate. (A-E) The ability of the cells to adhere to collagen type I-coated wells was analyzed as previously described for FIG. 2 in the absence or presence of different concentrations of the indicated peptide. (F) Effect of the indicated peptides on migration of Wnt-5a antisense HB2 in a transwell migration assay. The cells were allowed to migrate for 18 h in the absence or presence of 100 μM peptide or 0.4 μg/ml of recombinant Wnt5a. The data are given as means±SEM of 6-7 separate experiments, each performed in triplicate. * p<0.05 and ** p<0.01.

[2] = tested on: MDA-MB-468 cells; experiment: Migration of MDA-MB-468 cells in modified Boyden chamber; format: cell-based, human; conditions: 18 h; for migration: pure peptide 100 μM
Procedure: The HB2 mammary epithelial cell line, a subclone of the MTSV-1.7 cell line, originating from the laboratory of Dr. J. Taylor-Papadimitriou (11) was used. The HB2 cells were cultured in DMEM supplemented with 10% FBS, 5 U/mi penicillin, 0.5 U/ml streptomycin, 2 mM glutamine, 10 μg/ml bovine insulin and 5 μg/ml hydrocortisone. The human mammary carcinoma cell lines MCF-7 and MDA-MB-468 were cultured in DMEM supplemented with 10% FBS, 5 U/ml penicillin, 0.5 U/ml streptomycin and 2 mM glutamine. The pH-experiments were done in MEM supplemented with 10 mM Tris, 0.5% BSA, 5 U/ml penicillin, 0.5 U/ml streptomycin and 2 mM glutamine. The pH 7.4-medium was further supplemented with 4 mM sodium bicarbonate whereas the pH 6.7-medium was not. All cells were incubated at 37° C. in 95% air and 5% CO2.
as §1
Peptide-induced effects on MDA-MB-468 tumour cell migration and their content of F-actin. (A) The cells were allowed to migrate for 18 h in the absence or presence of the indicated peptides (100 μM) The data in panel A are expressed as means±SEM of 8 separate experiments, each performed in triplicate. * p<0.05. (B) The cells were allowed to adhere to collagen I-coated cover glasses for 18h in the absence or presence of peptide 175 (100 μM). The cells were then stained with Alexa488-Phalloidin as described in the methods section. The illustrated micrographs are representative of 5 separate experiments.
Effects of peptide 175 modifications on its ability to induce MDA-MB-468 tumour cell adhesion and migration. (A) The cells were allowed to adhere for 60 min to collagen-I coated wells in the absence or presence of peptide 175, three stepwise N-terminal deletion variants of peptide 175 or a formylated version of the tested hexapeptide derived from peptide 175. The amounts of adhesive cells were analyzed as described in the methods and the results are given as means±SEM of 6 separate experiments. (B and C) The cells were allowed to migrate for 18 h in the absence or presence of 1 or 10 μM of peptide 175 (B) or the formylated hexapeptide (C). The data are given as means±SEM of 6 separate experiments, each performed in triplicate. * p<0.05, p<0.01.
Effects of Frz-5 receptor blocking and reduced pH on the abilities of the formylated hexapeptide and Wnt-5a to inhibit tumour cell migration. […]

| Sequence | migration [1] | motility (migration) ([2]; 10 μM) | migration [2] |
| --- | --- | --- | --- |
| NKTSEGMDGCEL (Human) [peptide 175, Wnt-5a aa 311-322] | effectively decreased the migration | significantly impaired the motility | significantly decreased the migration |
| SQLAGLSQGQKKL [peptide 171, Wnt-5a aa 55-67; negative control] | no effect on migration |  | no statistically significant effect |
| ADFRKVGDALKEKYD [peptide 169, Wnt-5a aa 242-256] | effectively decreased the migration |  | significantly decreased the migration |
